Assay results from patent publication US20030096004A1, “(S,S'),(S,R')-amphetaminil, compositions and uses thereof” (priority 2001, published 2003).

Assays:
normal rats [1] = assay: Locomotor activity in normal rats (grid line crossings); type: in vivo, rat; settings: for locomotor activity (overall effect): male Wistar rats, all doses tested; for cumulative locomotor activity: vs vehicle
Description: (§1) Male Wistar rats (n=4 per group) were randomly allocated to each drug treatment group. Drugs were administered such that, with the exception of fusaric acid, each rat in each group received all doses of the drug or vehicle in a semi random manner according to the modified Latin Square in Table 1. Compounds were administered at the doses: 0.1, 1 and 10 mg/kg s.c. in 100% DMS0 (vehicle). Amphetamine was administered at 0.1, 1 and 5 mg/kg s.c. in saline (vehicle). Fusaric acid was administered at 20, 40 and 80 mg/kg s.c. in saline (vehicle). Rats received each dose of fusaric acid (20, 40 and 80 mg/kg), doses given in order, starting with vehicle. A one-week interval was provided between doses.
(§2) At the start of the experiment, rats were placed in standard perspex behaviour boxes with a visible grid on the floor to allow determination of locomotor activity. The animals were allowed to acclimatise to their environment for 1 hour prior to drug/saline administration. Following drug administration animals were returned to the behaviour cages and locomotor activity was assessed for a further 5 hours or until baseline (zero activity for 30 minutes) was achieved, whichever was sooner. Locomotor activity was assessed by videoing the rats throughout the experiment, and counting the number of times a rat crossed a grid line during a period of 5 minutes every 10 minutes. Throughout the experiment animals were scored for stereotyped behaviours for 15 seconds every 10 minutes by a trained observer using the scoring methods described in Table 2.
The mean and standard error for locomotor activity over 10 minutes for each rat at each time point was determined. […] Cumulative activity, during the 300 min was also calculated, and the effect of dose of drug was analyzed by one-way repeated measures ANOVA followed by Dunnett's t-test (GraphPad Prizm). Data was also analysed for significant fit to a sigmoidal-shaped log dose-response curve using non-linear regression analysis (GraphPad Prizm).

normal rats [2] = assay: Induction of stereotyped behaviour in normal rats (stereotypy scoring); type: in vivo, rat; settings: for duration of stereotypy: 300 min experiment; for stereotypy (overall effect): male Wistar rats, all doses tested; for stereotypy (overall effect) / onset of stereotypy: s.c.; for onset of stereotypy: 10 mg/kg stated for (S,S′),(S,R′)-amphetaminil; for differences in overall stereotypy between groups: total stereotypy score, 0.1-10 mg/kg s.c. vs vehicle
Description: as §1, §2
The mean and standard error for stereotypy activity for 15 seconds every 10 minutes for each rat at each time point was determined. […] Cumulative activity during the 300 min was also calculated, and the effect of dose of drug was analyzed by Kruskall Wallis one-way ANOVA (GraphPad Prizm). Data was also analysed for significant fit to a sigmoidal-shaped log dose-response curve using non-linear regression analysis (GraphPad Prizm)

[3] = tested on: children with hyperkinetic syndrome; settings: Pacit et al., 1996; cited from earlier work

Compound	locomotor activity (overall effect) (normal rats [1]; s.c.)	duration of stereotypy (normal rats [2]; 10 mg/kg s.c.)	stereotypy (overall effect) (normal rats [2])	onset of stereotypy (normal rats [2])	differences in overall stereotypy between groups (normal rats [2])	efficacy in the treatment of ADHD in children [3]	share of the racemate's pharmacological activity, cumulative locomotor activity (FIGS. 3B and 4B) (normal rats [1]; 1 mg/kg)	cumulative locomotor activity (normal rats [1]; 10 mg/kg s.c.)	onset of locomotor activity after administration (normal rats [1]; s.c.) [min]	peak of locomotor activity (normal rats [1]; s.c.) [min]	share of the racemate's pharmacological activity, total stereotypy score (FIGS. 7B and 8B) (normal rats [2]; 1 mg/kg)	peak of stereotypy (normal rats [2]; 10 mg/kg s.c.) [min]	onset of locomotor activity (normal rats [1]; 5 mg/kg s.c.)	time of maximum effect on locomotor activity after administration (normal rats [1]; 5 mg/kg s.c.) [min]	cumulative locomotor activity (normal rats [1]; 5 mg/kg s.c., over the duration of the experiment)	overall stereotypy during the 300 min duration of the experiment (normal rats [2]; 5 mg/kg s.c.)
CC(Cc1ccccc1)NC(C#N)c1ccccc1 (racemic) [Racemic amphetaminil, alpha-[(1-methyl-2-phenylethyl)amino]benzeneacetonitrile]	increased locomotor activity only at the highest dose of 10 mg/kg	sustained for the duration of the experiment	increased stereotypy in a log dose-related manner	rapid	did not reach statistical significance	efficacy	–	–	–	–	–	–	–	–	–	–
C[C@@H](Cc1ccccc1)NC(C#N)c1ccccc1 (stereo partly drawn) [(S,S′),(S,R′)-Amphetaminil, alpha-[(1S-Methyl-2-phenylethyl)amino]benzeneacetonitrile]	increased locomotor activity in a dose-related manner	sustained during the 300 min duration of the experiment	increased stereotypy in a log dose-related manner	rapid	did not reach statistical significance	–	responsible for nearly all of the pharmacological activity of the racemate	significant effect	≤ 30	60	responsible for nearly all of the pharmacological activity of the racemate	100	–	–	–	–
CC(N)Cc1ccccc1 (centres unmarked) [Amphetamine]	dose-related increase in locomotor activity	–	log dose-related increase stereotypy	–	–	–	–	–	–	–	–	–	rapid	30	significantly increased	tended to increase
